Entries after “also recorded” stand apart in the source; their conditions may differ. Read-outs that look alike come from different tables or passages of the source.
Key:
[1] = Method: The stability of Compound A was followed by HPLC analysis. […] Additionally a stability study was performed over 3 years on industrial batch of dried material.
[2] = molecular target: T1, human GHSR1a receptor (Homo sapiens, UniProt Q92847); experiment: FLIPR assay in HEK293 cells stably expressing human GHSR1a receptor; format: cell-based; conditions: read-out: EC50, agonist activity in FLIPR assay
T1 construct: expressed in transfected cells; host or cells: HEK293
T1 sequence (Q92847 whole entry): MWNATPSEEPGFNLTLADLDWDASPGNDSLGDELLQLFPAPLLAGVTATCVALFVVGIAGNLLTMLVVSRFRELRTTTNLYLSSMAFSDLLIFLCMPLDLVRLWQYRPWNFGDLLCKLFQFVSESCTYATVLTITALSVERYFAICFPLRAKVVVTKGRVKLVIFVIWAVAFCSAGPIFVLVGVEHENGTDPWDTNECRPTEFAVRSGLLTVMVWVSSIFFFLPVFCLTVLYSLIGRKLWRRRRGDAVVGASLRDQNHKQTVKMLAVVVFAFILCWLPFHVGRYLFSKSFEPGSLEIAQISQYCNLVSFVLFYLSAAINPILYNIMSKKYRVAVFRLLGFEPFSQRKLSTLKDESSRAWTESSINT
Method: HEK293 cells stably expressing human GHSR1a receptor were used in FLIPR assay. Cells were maintained under standard procedures. One day prior the test, cells were seeded at a density of 1.5×10^4/well in a Matrigel® coated 384-well plate with 30 μl of complete DMEM medium, and incubated at 37° C. in 5% CO2 for 22-26 hrs. On the test day, 4× loading dye was added into each well (10 μl per well for 384 well plates). Assay plates were incubated at 37° C. in the dark for 30 minutes. Then the dye content was removed by centrifugation at 300 rpm for 30 s. 40 μL HBSS/Hepes with 1 mM probenicid was added with Platemate Matrix (low speed setting, Thermo). The plate was then placed in FLIPR Tetra (Molecular Device) and 5× working concentrations of agonists were added by FLIPR. Fluorescence signal was detected with FLIPR at room temperature according to standard settings.

[3] = tested on: cisplatin-treated Wistar rats; experiment: Cisplatin study (body weight, food intake, von Frey testing); format: in vivo; conditions: for Body Weight / Allodynia: Cisplatin 0.5 mg/kg (i.p.) for three days
Method: Compound A was made as a suspension in 0.5% carboxymethylcellulose solution in dosing volumes of 1 and 10 mL/kg for rats and mice respectively and dosed orally at 3, 10 or 30 mg/kg. […] Bortezomib was prepared in 10% Tween 80, 10% EtOH 100% and 80% saline solution and injected i.v. (1 mL/kg) at 0.2 mg/kg.
Fifty male Wistar rats weighing 250-300 g at start of experiment were randomly divided into 5 groups of 10 rats each. Group 1 received daily Compound A vehicle (p.o.) for 6 days and cisplatin vehicle (i.p.) for 3 days. Group 2 received Compound A vehicle (p.o) and 0.5 mg/kg cisplatin (i.p.) for 3 days followed by Compound A vehicle for 3 additional days. Group 3 received daily 3 mg/kg Compound A (p.o) and 0.5 mg/kg cisplatin (i.p.) for 3 days followed by 3 mg/kg Compound A for an additional 3 days. Group 4 received 10 mg/kg Compound A (p.o) and 0.5 mg/kg cisplatin (i.p.) for 3 days followed by 10 mg/kg Compound A for an additional 3 days. Group 5 received daily 30 mg/kg Compound A (p.o.) and 0.5 mg/kg cisplatin (i.p.) for 3 days followed by 30 mg/kg Compound A for an additional 3 days. In each case, cisplatin or cisplatin vehicle was dosed 30 min after Compound A or Compound A vehicle, which was dosed 1 hour prior to von Frey filament testing. Individual body weights and 24 h food intake were measured daily from just prior to initiation of dosing.
In the cisplatin study, rats were individually housed and acclimated to handling and to the Von Frey testing apparatus for several days prior to start of the experiment. Baseline measurements were obtained prior to dosing. Behavioral testing was conducted following procedures previously described (28). Each filament was tested 5 times and the test continued until 3 withdrawal responses to a particular filament were recorded.

[4] = tested on: oxaliplatin-treated Balb/C mice; conditions: for Body Weight / IENFD / NCS: Oxaliplatin 6 mg/kg (i.p.) twice weekly for 4 weeks
[5] = tested on: proteasome activity; experiment: Proteasome inhibition study in bortezomib-treated rats; format: in vivo, Wistar rats; conditions: co-administration at different doses, preventive or therapeutic settings
Method: At baseline and after 8 weeks of treatment, caudal and digital nerve conduction and potential amplitude studies, behavioral tests (Dynamic) and blood collection to study proteasome inhibition were performed. After 8 weeks of treatment, tissue samples (sciatic and caudal nerves, DRG and foot pads) were collected and analyzed to study morphological parameters and intraepidermal nerve fibre density (IENFD).
At baseline and after 8 weeks of treatment, caudal and digital nerve conduction and potential amplitude studies and blood collection to study proteasome inhibition were performed. […] After 8 weeks of treatment, sciatic nerves, caudal nerves, DRG and foot pads were collected from all animals and analyzed to study morphological parameters and IENFDs.

[6] = rat, in vivo
[7] = crude wet material, batch #01, 2-8° C., t = 0
[8] = crude wet material, batch #01, 2-8° C., t = 8 days
[9] = crude wet material, batch #01, 2-8° C., t = 30 days
[10] = crude wet material, batch #02, rt under air, t = 0
[11] = crude wet material, batch #02, rt under air, t = 24 days
[12] = during drying at 60° C., t = 74 hours

## 3-(1-(2,3-dichloro-4-methoxyphenyl) ethyl)-1-methyl-1-(1,3,3-trimethylpiperidin-4-yl)urea monohydrochloride salt [Compound A]
[1]; [7]
  Compound A, HPLC results: 99.60%
  Impurity RRT 0.97, HPLC results: 0.40%
[1]; [8]
  Compound A, HPLC results: 99.70%
  Impurity RRT 0.97, HPLC results: 0.29%
[1]; [9]
  Compound A, HPLC results: 99.75%
  Impurity RRT 0.97, HPLC results: 0.25%
[1]; [10]
  Compound A, HPLC results: 99.74%
  Impurity RRT 0.97, HPLC results: 0.24%
[1]; [11]
  Compound A, HPLC results: 99.73%
  Impurity RRT 0.97, HPLC results: 0.27%
[1]; during drying at 60° C., t = 0
  Compound A, HPLC results: 99.83%
  Impurity RRT 0.97, HPLC results: 0.17%
[1]; [12]
  Compound A, HPLC results: 99.78%
  Impurity RRT 0.97, HPLC results: 0.17%
[2]
  EC50: 1.25 ± 0.42 nM
[3]; Compound A dose 3
  Body Weight: +
[3]; Compound A dose 10
  Allodynia: +
  Body Weight: +
[3]; Compound A dose 30
  Allodynia: +
  Body Weight: +
[3]; Compound A 3 mg/kg p.o., monohydrochloride salt, 3 mg/kg
  cisplatin-induced mechanical hyperalgesia: no significant effect and not
[3]; Compound A 30 mg/kg, Days 3 thru 5
  paw withdrawal thresholds compared to vehicle-treated rats: significantly increased
[3]; Compound A 3, 10 and 30 mg/kg p.o.
  overall food intake compared to cisplatin alone: increased
[3]; Compound A 3, 10 and 30 mg/kg p.o., monohydrochloride salt
  body weight compared to cisplatin alone: increased; also recorded: improved
[3]; Compound A 10 and 30 mg/kg p.o. (FIG. 1B)
  food intake compared to cisplatin alone: improved
[3]; Compound A 10 and 30 mg/kg p.o., monohydrochloride salt
  cisplatin-induced mechanical hyperalgesia: significantly reduced; also recorded: significantly improved
[4]; Compound A 30 mg/kg
  improvement of digital potential amplitude vs. oxaliplatin-treated mice: 33+/−9%
[4]; Compound A 30 mg/kg (FIG. 2B)
  digital potential amplitude: able to normalize
[4]; Compound A 10 and 30 mg/kg
  oxaliplatin-induced decrease in digital and caudal NCV: significantly prevented
[4]; Compound A 10 and 30 mg/kg, monohydrochloride salt
  IENFD in footpads vs. vehicle treated mouse values: completely normalized; also recorded: completely normalised
[4]; Compound A 10 or 30 mg/kg
  weight loss compared to oxaliplatin treated mice: less weight loss
[4]; Compound A dose 10
  Body Weight: +
  IENFD: +
  NCS: +
[4]; Compound A dose 30
  Body Weight: +
  IENFD: +
  NCS: +
[4]; mouse, in vivo
  degenerative changes in DRG and sciatic nerve: did not cause any degenerative changes
[5]
  bortezomib-induced proteasome inhibition: did not impair
[6]; iv, 3 mg/kg
  AUClast: 937 ± 145 ng·h/mL
  C0083/Cmax: 682 ± 58.5 ng/mL
  CL (clearance): 52.0 ± 9.22 mL/min/kg
  Vss (volume distribution at steady state): 6600 ± 491 mL/kg
  t1/2, z: 1.92 ± 0.121 h
[6]; iv, 10 mg/kg
  AUClast: 3540 ± 765 ng·h/mL
[6]; po, 3 mg/kg
  AUClast: 780 ± 155 ng·h/mL
  C0083/Cmax: 181 ± 43.7 ng/mL
  F (bioavailability): 83 ± 21%
  t1/2, z: 2.56 ± 0.177 h
  tmax: 1.67 ± 0.577 h
[6]; po, 10 mg/kg
  AUClast: 3400 ± 1010 ng·h/mL
  tmax: 1.67 ± 2.02 h
[6]; po, 30 mg/kg
  AUClast: 12300 ± 1400 ng·h/mL
  C0083/Cmax: 1430 ± 208 ng/mL
  F (bioavailability): 116 ± 28%
  bioavailability: exceeded 80%
  t1/2, z: 3.26 ± 0.170 h
  tmax: 1.67 ± 0.577 h

From patent US12005056B2, “Centrally-active ghrelin agonist and medical uses thereof” (Helsinn Healthcare SA, priority 2018, dated 2024)
